What all share (format): functional
Experiment [1] has as its system Athalia rosae ruficornis. Put plainly: Pharmacophagous feeding stimulant activity in Athalia rosae ruficornis assessed as insect fed on paper for more than 10 seconds at 10^-7 g/filter paper.
Experiment [2] concerns Athalia rosae ruficornis. Put plainly: Pharmacophagous feeding stimulant activity in Athalia rosae ruficornis assessed as insect fed on paper for more than 10 seconds at 10^-6 g/filter paper.
Experiment [3] has as its system Athalia rosae ruficornis. Put plainly: Pharmacophagous feeding stimulant activity in Athalia rosae ruficornis assessed as insect fed on paper for more than 10 seconds at 10^-5 g/filter paper.
For experiment [4], the system named is Athalia rosae ruficornis. The experiment is described as follows: Pharmacophagous feeding stimulant activity in Athalia rosae ruficornis assessed as insect fed on paper for more than 10 seconds at 10^-8 g/filter paper.

Structures are written as SMILES.

For the molecule `CC[C@H](C)C(=O)O[C@@H](C[C@@]1(C)[C@H](C)C[C@H](OC(C)=O)[C@]2(COC(C)=O)[C@@H]1CC[C@H](O)[C@]21CO1)C1=CC(=O)OC1` [AJUGATANSIN B1], the Activity in the experiment with Athalia rosae ruficornis [1], in the experiment on Athalia rosae ruficornis [2], in the experiment with Athalia rosae ruficornis [3] and with Athalia rosae ruficornis [4] was <10% throughout.
Turning to `CCC(C)C(=O)O[C@H]1[C@H](O)C[C@@H]2[C@@](C)([C@@H]3C[C@H]4C=CO[C@H]4O3)C(C)=C[C@H](OC(C)=O)[C@@]2(COC(C)=O)[C@@]12CO2` (some centres undefined) [CLERODENDRIN G], the Activity with Athalia rosae ruficornis [1] was <10%; in the experiment with Athalia rosae ruficornis [2], 40%; in the experiment with Athalia rosae ruficornis [3] it was 40%; in the experiment on Athalia rosae ruficornis [4], <10%.
On to `CC(=O)OC[C@@]12[C@@H](OC(C)=O)C=C(C)[C@](C)([C@@H]3C[C@H]4C=CO[C@H]4O3)[C@H]1C[C@@H](O)[C@H](OC(=O)[C@](C)(OC(C)=O)[C@@H](C)OC(C)=O)[C@]21CO1` [CLERODENDRIN F], for which the Activity was <10% with Athalia rosae ruficornis [1], 10% with Athalia rosae ruficornis [2], 10% in the experiment with Athalia rosae ruficornis [3] and <10% with Athalia rosae ruficornis [4].
On to `C/C=C(\C)C(=O)O[C@@H]1CC[C@]2(CO2)[C@]2(COC(C)=O)[C@@H](OC(C)=O)C[C@@H](C)[C@](C)(C[C@H](O)C3=CC(=O)OC3)[C@@H]12` [AJUGAMARIN A1], for which the Activity in the experiment with Athalia rosae ruficornis [1], in the experiment on Athalia rosae ruficornis [2], in the experiment on Athalia rosae ruficornis [3] and with Athalia rosae ruficornis [4] was <10% in each case.
Consider `C/C=C(\C)C(=O)O[C@@H]1CC[C@]2(CO2)[C@]2(COC(C)=O)[C@@H](OC(C)=O)C[C@@H](C)[C@](C)(C[C@H](OC(=O)[C@@H](C)CC)C3=CC(=O)OC3)[C@@H]12` [AJUGAMARIN G1], for which the Activity in the experiment on Athalia rosae ruficornis [1], with Athalia rosae ruficornis [2], in the experiment with Athalia rosae ruficornis [3] and with Athalia rosae ruficornis [4] was <10% each time.
For `CC[C@H](C)C(=O)O[C@H]1CC(=O)[C@@H]2[C@@](C)(CCC3=CC(=O)OC3)[C@H](C)C[C@H](OC(C)=O)[C@@]2(COC(C)=O)[C@@]12CO2` [AJUGAREPTANSONE A], the Activity in the experiment on Athalia rosae ruficornis [1] is recorded as <10%; with Athalia rosae ruficornis [2], <10%; in the experiment on Athalia rosae ruficornis [3] it was 10%; in the experiment on Athalia rosae ruficornis [4], <10%.
With `CC(=O)OC[C@@]12[C@@H](OC(C)=O)C[C@@H](C)[C@](C)([C@@H]3C[C@H]4C=CO[C@H]4O3)[C@H]1C[C@@H](O)[C@H](O)[C@]21CO1` [ATHALIADIOL], the Activity was found to be 40% in the experiment with Athalia rosae ruficornis [1], 80% in the experiment on Athalia rosae ruficornis [2], 80% with Athalia rosae ruficornis [3] and 40% in the experiment with Athalia rosae ruficornis [4].
Consider `CC[C@H](C)C(=O)O[C@@H](C[C@@]1(C)[C@H](C)C[C@H](OC(C)=O)[C@]2(COC(C)=O)[C@@H]1[C@H](OC(=O)[C@@H](C)CC)CC[C@]21CO1)C1=CC(=O)OC1` [AJUGATAKASIN B], for which the Activity in the experiment on Athalia rosae ruficornis [1], in the experiment with Athalia rosae ruficornis [2], in the experiment on Athalia rosae ruficornis [3] and in the experiment with Athalia rosae ruficornis [4] was <10% each time.
With `C/C=C(\C)C(=O)O[C@@H](C[C@@]1(C)[C@H](C)C[C@H](OC(C)=O)[C@]2(COC(C)=O)[C@@H]1[C@H](OC(=O)/C(C)=C/C)CC[C@]21CO1)C1=CC(=O)OC1` [AJUGATAKASIN A], the Activity in the experiment with Athalia rosae ruficornis [1], in the experiment on Athalia rosae ruficornis [2], in the experiment with Athalia rosae ruficornis [3] and in the experiment with Athalia rosae ruficornis [4] was <10% throughout.
Turning to `CC(=O)OC[C@@]12[C@@H](OC(C)=O)C[C@@H](C)[C@](C)([C@@H]3C[C@H]4C=CO[C@H]4O3)[C@H]1CC[C@H](OC(C)=O)[C@]21CO1` [3-EPICARYOPTIN], the Activity with Athalia rosae ruficornis [1], with Athalia rosae ruficornis [2], in the experiment with Athalia rosae ruficornis [3] and in the experiment with Athalia rosae ruficornis [4] was 80% each time.
As for `C/C=C(\C)C(=O)O[C@@H](C[C@@]1(C)[C@H](C)C[C@H](OC(C)=O)[C@]2(COC(C)=O)[C@@H]1[C@H](OC(=O)[C@@H](C)CC)CC[C@]21CO1)C1=CC(=O)OC1` [AJUGAMARIN H1], the Activity in the experiment with Athalia rosae ruficornis [1], in the experiment on Athalia rosae ruficornis [2], with Athalia rosae ruficornis [3] and with Athalia rosae ruficornis [4] was <10% throughout.
For `CC[C@@](C)(OC(C)=O)C(=O)O[C@H]1[C@H](O)C[C@@H]2[C@@](C)([C@@H]3C[C@H]4C=CO[C@H]4O3)C(C)=C[C@H](OC(C)=O)[C@@]2(COC(C)=O)[C@@]12CO2` [CLERODENDRIN A], the Activity is listed as <10% with Athalia rosae ruficornis [1], 40% in the experiment with Athalia rosae ruficornis [2], 40% in the experiment on Athalia rosae ruficornis [3] and <10% in the experiment on Athalia rosae ruficornis [4].
Consider `CC(=O)OC[C@@]12[C@@H](OC(C)=O)C=C(C)[C@](C)([C@@H]3C[C@H]4C=CO[C@H]4O3)[C@H]1C[C@@H](O)[C@H](OC(=O)[C@](C)(OC(C)=O)[C@H](C)OC(C)=O)[C@]21CO1` [CLERODENDRIN I], for which the Activity was <10% in the experiment on Athalia rosae ruficornis [1], 10% with Athalia rosae ruficornis [2], 10% with Athalia rosae ruficornis [3] and <10% in the experiment on Athalia rosae ruficornis [4].
As for `CC(=O)OC[C@@]12[C@@H](OC(C)=O)C[C@@H](C)[C@](C)([C@@H]3C[C@H]4C=CO[C@H]4O3)[C@H]1C[C@@H](O)[C@H](OC(=O)C(C)C)[C@]21CO1` [AJUGACHIN A], the Activity with Athalia rosae ruficornis [1], with Athalia rosae ruficornis [2], in the experiment on Athalia rosae ruficornis [3] and in the experiment on Athalia rosae ruficornis [4] was 80% in each case.
In the case of `CC(=O)OC[C@@]12[C@@H](OC(C)=O)C[C@@H](C)[C@](C)([C@@H]3C[C@H]4C=CO[C@H]4O3)[C@H]1C[C@@H](O)[C@H](OC(=O)[C@](C)(OC(C)=O)[C@@H](C)OC(C)=O)[C@]21CO1` [CLERODENDRIN H], the Activity in the experiment with Athalia rosae ruficornis [1], in the experiment on Athalia rosae ruficornis [2], in the experiment with Athalia rosae ruficornis [3] and in the experiment on Athalia rosae ruficornis [4] was 80% throughout.
For `CCC(C)C(=O)O[C@@H]1CC[C@]2(CO2)[C@]2(COC(C)=O)[C@@H](OC(C)=O)C[C@@H](C)[C@](C)(C[C@H](O)C3=CC(=O)OC3)[C@@H]12` (some centres undefined) [DIHYDROAJUGAMARIN], the Activity in the experiment on Athalia rosae ruficornis [1], in the experiment with Athalia rosae ruficornis [2], with Athalia rosae ruficornis [3] and with Athalia rosae ruficornis [4] was <10% in each case.
Regarding `CC(=O)OC[C@@]12[C@@H](OC(C)=O)C[C@@H](C)[C@](C)([C@@H]3C[C@H]4C=CO[C@H]4O3)[C@H]1CCC[C@]21CO1` [CLERODIN], the Activity is reported as 80% in the experiment with Athalia rosae ruficornis [1], 80% in the experiment on Athalia rosae ruficornis [2], 80% in the experiment with Athalia rosae ruficornis [3] and 40% in the experiment with Athalia rosae ruficornis [4].
Regarding `CC[C@@](C)(OC(C)=O)C(=O)O[C@H]1[C@H](O)C[C@@H]2[C@@](C)([C@@H]3C[C@H]4C=CO[C@H]4O3)[C@H](C)C[C@H](OC(C)=O)[C@@]2(COC(C)=O)[C@@]12CO2` [CLERODENDRIN B], the Activity was 80% in the experiment on Athalia rosae ruficornis [1], 80% in the experiment on Athalia rosae ruficornis [2], 80% in the experiment on Athalia rosae ruficornis [3] and 40% in the experiment on Athalia rosae ruficornis [4].
In the case of `CC[C@H](C)C(=O)O[C@H]1[C@H](O)C[C@@H]2[C@@](C)([C@@H]3C[C@H]4C=CO[C@H]4O3)[C@H](C)C[C@H](OC(C)=O)[C@@]2(COC(C)=O)[C@@]12CO2` [CLERODENDRIN D], the Activity with Athalia rosae ruficornis [1], in the experiment with Athalia rosae ruficornis [2], in the experiment with Athalia rosae ruficornis [3] and in the experiment with Athalia rosae ruficornis [4] was 80% each time.
Consider `CC(=O)OC[C@@]12[C@@H](OC(C)=O)C=C(C)[C@](C)([C@@H]3C[C@H]4C=CO[C@H]4O3)[C@H]1C[C@@H](O)[C@H](OC(=O)C(C)(C)OC(C)=O)[C@]21CO1` [CLERODENDRIN E], for which the Activity is on record as <10% in the experiment with Athalia rosae ruficornis [1], 10% with Athalia rosae ruficornis [2], 10% in the experiment on Athalia rosae ruficornis [3] and <10% in the experiment with Athalia rosae ruficornis [4].
Regarding `CC[C@H](C)C(=O)O[C@@H](C[C@@]1(C)[C@H](C)C[C@H](OC(C)=O)[C@]2(COC(C)=O)[C@@H]1C(=O)C[C@H](O)[C@]21CO1)C1=CC(=O)OC1` [Ajugareptone], the Activity in the experiment with Athalia rosae ruficornis [1], in the experiment on Athalia rosae ruficornis [2], in the experiment with Athalia rosae ruficornis [3] and in the experiment with Athalia rosae ruficornis [4] was <10% each time.

For the origin of these results see ChEMBL document CHEMBL3044742, “Pharmacophagous feeding stimulant activity of neo-clerodane diterpenoids for the turnip sawfly, Athalia rosae ruficornis” (2004).
